According to patent US6245817A, “NPY5 receptor antagonists and methods for using same” (Bayer Corporation, priority 1999, dated 2001):

Tests used:
Human NPY1 Receptor = biological target: T1, Human NPY1 Receptor (Homo sapiens, UniProt P25929); test: Human NPY1 Receptor Binding Assay; settings: SK-N-MC cells, [125I]PYY; read-out: hNPY1 IC50
T1 sequence (P25929 1-384): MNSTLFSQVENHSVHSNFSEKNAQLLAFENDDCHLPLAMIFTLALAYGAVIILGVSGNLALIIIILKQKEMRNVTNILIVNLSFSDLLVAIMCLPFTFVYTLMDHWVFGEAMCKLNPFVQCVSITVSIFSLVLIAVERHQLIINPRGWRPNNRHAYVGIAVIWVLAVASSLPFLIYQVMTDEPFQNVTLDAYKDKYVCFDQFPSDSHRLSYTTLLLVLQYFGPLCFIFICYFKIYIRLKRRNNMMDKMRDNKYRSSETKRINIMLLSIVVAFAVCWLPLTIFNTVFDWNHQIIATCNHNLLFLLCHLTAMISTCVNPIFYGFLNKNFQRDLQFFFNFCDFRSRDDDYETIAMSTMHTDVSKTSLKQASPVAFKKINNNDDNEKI

Human NPY5 Receptor = biological target: T2, Human NPY5 Receptor (Homo sapiens, UniProt Q15761); test: Human NPY5 Receptor Binding Assay; settings: [125I]PYY; read-out: hNPY5 IC50
T2 sequence (Q15761 1-445): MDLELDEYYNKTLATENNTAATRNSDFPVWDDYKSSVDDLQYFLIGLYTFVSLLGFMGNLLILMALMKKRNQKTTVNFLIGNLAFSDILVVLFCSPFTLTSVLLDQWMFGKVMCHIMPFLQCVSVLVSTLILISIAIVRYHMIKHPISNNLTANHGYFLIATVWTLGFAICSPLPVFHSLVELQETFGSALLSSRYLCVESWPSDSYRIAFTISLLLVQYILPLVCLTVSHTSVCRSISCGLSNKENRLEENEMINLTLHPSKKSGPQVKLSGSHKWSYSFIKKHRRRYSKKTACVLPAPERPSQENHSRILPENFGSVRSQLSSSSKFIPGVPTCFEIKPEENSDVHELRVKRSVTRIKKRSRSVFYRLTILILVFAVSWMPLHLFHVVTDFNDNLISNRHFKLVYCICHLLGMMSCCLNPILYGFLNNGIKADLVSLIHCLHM

Rat NPY5 Receptor = biological target: T3, Rat NPY5 Receptor (Rattus norvegicus, UniProt Q63634); test: Rat NPY5 Receptor Binding Assay; settings: [125I]PYY; read-out: rNPY5 IC50
T3 sequence (Q63634 1-445): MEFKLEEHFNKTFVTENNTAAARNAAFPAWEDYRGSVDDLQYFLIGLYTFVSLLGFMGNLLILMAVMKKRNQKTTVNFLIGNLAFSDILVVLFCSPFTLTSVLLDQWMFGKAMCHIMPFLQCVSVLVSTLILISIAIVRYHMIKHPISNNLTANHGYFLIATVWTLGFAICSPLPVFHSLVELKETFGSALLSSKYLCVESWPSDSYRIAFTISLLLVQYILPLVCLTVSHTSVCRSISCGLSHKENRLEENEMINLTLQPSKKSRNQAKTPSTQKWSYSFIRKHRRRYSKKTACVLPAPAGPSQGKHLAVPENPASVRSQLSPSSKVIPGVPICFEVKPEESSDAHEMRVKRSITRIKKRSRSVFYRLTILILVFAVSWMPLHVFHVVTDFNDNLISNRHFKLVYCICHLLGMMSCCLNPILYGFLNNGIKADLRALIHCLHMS

Human NPY4/PP1 receptor = Human NPY4/PP1 receptor (Homo sapiens, UniProt P50391); test: Human NPY4/PP1 Receptor Binding Assay; settings: [125I]human PP; read-out: hNPY4 IC50
Human NPY4/PP1 receptor, sequence (P50391 whole entry): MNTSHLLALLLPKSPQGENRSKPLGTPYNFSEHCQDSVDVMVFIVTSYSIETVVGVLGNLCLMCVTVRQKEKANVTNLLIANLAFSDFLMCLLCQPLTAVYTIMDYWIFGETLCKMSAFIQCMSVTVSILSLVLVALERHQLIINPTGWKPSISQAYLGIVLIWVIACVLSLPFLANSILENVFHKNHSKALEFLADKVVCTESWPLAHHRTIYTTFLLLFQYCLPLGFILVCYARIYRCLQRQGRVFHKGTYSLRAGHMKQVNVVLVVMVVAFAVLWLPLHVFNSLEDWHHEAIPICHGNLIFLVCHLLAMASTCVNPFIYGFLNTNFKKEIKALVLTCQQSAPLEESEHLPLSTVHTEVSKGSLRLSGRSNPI

SMILES	IC50 (Human NPY1 Receptor)	IC50 (Human NPY5 Receptor)	IC50 (Rat NPY5 Receptor)	IC50 (Human NPY4/PP1 receptor)
Cn1c(SCC(=O)Nc2ccc(Cl)cc2)nnc1-c1ncc(C(F)(F)F)cc1Cl [Compound 160, reference compound]	> 5 µM	> 10 µM	> 10 µM	> 5 µM
COC(Cn1c(SCC(=O)Nc2ccc(Cl)cc2)nnc1-c1ccc(Cl)cc1)OC [Compound 161, N-(4-Chloro-phenyl)-2-[5-(4-chloro-phenyl)-4-(2,2-dimethoxy-ethyl)-4H-[1,2,4]triazol-3-ylsulfanyl]-ecetamide, reference compound]	> 5 µM	> 10 µM	> 10 µM	> 5 µM
COC(Cn1c(SCC(=O)Nc2ccc(Cl)cc2)nnc1-c1ccccc1)OC [Compound 162, N-(4-Chloro-phenyl)-2-(4-(2,2-dimethoxy-ethyl)-5-phenyl-4H-[1,2,4]triazol-3-ylsulfanyl]-acetamide, reference compound]	> 5 µM	> 10 µM	> 10 µM	> 5 µM
COC(Cn1c(SCC(=O)Nc2ccc(C(C)C)cc2)nnc1-c1ccccc1)OC [Compound 163, 2-[4-(2,2-Dimethoxy-ethyl)-5-phenyl-4H-[1,2,4]triazol-3-ylsulfanyl]-N-(4-isopmpyl-phenyl)-acetamide, reference compound]	> 5 µM	> 10 µM	> 10 µM	> 5 µM
Cn1cnnc1SCC(=O)Nc1ccc(C(C)(C)C)cc1 [Compound 164, N-(4-tert-Butyl-phenyl)-2-(4-methyl-4H-[1,2,4]triazol-3-ylsulfanyl)-acetamide, reference compound]	> 5 µM	1.6 µM	1.7 µM	> 5 µM
CC(C)c1ccc(NC(=O)CSc2nc3cc(C(F)(F)F)ccc3n2C(C)C)cc1 [Compound 165, N-(4-Isopropyl-phenyl)-2-(1-isopropyl-5-trifluoromethyl-1H-benzolmidazol-2-ylsulfanyl)-acetamide, reference compound]	> 5 µM	> 10 µM	> 10 µM	> 5 µM
COC(Cn1c(SCC(=O)Nc2ccc(C(C)C)cc2)nnc1-c1ccc(Cl)cc1)OC [Compound 166, 2-[5-(4-Chloro-phenyl)-4-(2,2-dimethoxy-ethyl)-4H-[1,2,4]triazol-3-ylsulfanyl]-N-(4-isopropyl-phenyl)-acetamide, reference compound]	> 5 µM	> 10 µM	> 10 µM	> 5 µM
Cn1c(CC2Sc3ccccc3NC2=O)nnc1SCC(=O)Nc1ccc(Cl)cc1 (stereo not shown) [Compound 167, reference compound]	> 5 µM	> 10 µM	> 10 µM	> 5 µM
Cn1c(Cc2ccsc2)nnc1SCC(=O)Nc1ccc(Cl)cc1 [Compound 168, N-(4-Chloro-phenyl)-2-(4-methyl-5-thiophen-3-ylmethyl-4H-[1,2,4]triazol-3-ylsulfanyl)-acetamide, reference compound]	> 5 µM	> 10 µM	> 10 µM	> 5 µM
Cc1cc(-c2nc(C)c(-c3nnc(SCC(=O)Nc4ccc(Cl)cc4)n3C)s2)no1 [Compound 169, reference compound]	> 5 µM	> 10 µM	> 10 µM	> 5 µM
Cn1cnnc1SCC(=O)Nc1ccc(F)cc1 [Compound 170, N-(4-Fluoro-phenyl)-2-(4-methyl-4H-[1,2,4]triazol-3-ylsulfanyl)-acetamide, reference compound]	> 5 µM	> 10 µM	> 10 µM	> 5 µM
CCC(C)c1ccc(NC(=O)CSc2nnnn2C)cc1 (stereo not shown) [Compound 171, N-(4-sec-Butyl-phenyl)-2-(1-methyl-1H-tetrazol-5-ylsulfanyl)-acetamide, reference compound]	> 5 µM	0.553 µM	0.525 µM	> 5 µM
CCC(C)c1ccc(NC(=O)CSc2nncn2C)cc1 (stereo not shown) [Compound 172, reference compound]	> 5 µM	2.3 µM	2 µM	> 5 µM
